For 33 compounds, EC50 and IC50 results are on record in patent US10913736B2 (UNIVERSITY OF WASHINGTON, priority 2014, dated 2021).

The test system of one test is T. brucei. As to the kind of experiment: Growth inhibition assay of T. brucei cell cultures (Alamar Blue, 48 h). The test is classed as cell-based. The following applies: Trypanosoma brucei; read-out: B) T. brucei EC50. (The colour change of resazurin is a common sign of viable cells or microbes.)
A further test addresses MetRS (T. brucei) (Trypanosoma brucei brucei, UniProt Q38C91). As to the kind of experiment: MetRS (T. brucei) ATP depletion assay using Kinase-Glo. It is filed as biochemical. (In Kinase-Glo more light means more ATP remaining.)

Several values for one entry are separate records, joined by “and”; a condition that tells them apart may be missing. Equal entries are not always repeated. Some results are limits rather than exact numbers.

Sequence of MetRS (T. brucei) (Q38C91 entry or part of it): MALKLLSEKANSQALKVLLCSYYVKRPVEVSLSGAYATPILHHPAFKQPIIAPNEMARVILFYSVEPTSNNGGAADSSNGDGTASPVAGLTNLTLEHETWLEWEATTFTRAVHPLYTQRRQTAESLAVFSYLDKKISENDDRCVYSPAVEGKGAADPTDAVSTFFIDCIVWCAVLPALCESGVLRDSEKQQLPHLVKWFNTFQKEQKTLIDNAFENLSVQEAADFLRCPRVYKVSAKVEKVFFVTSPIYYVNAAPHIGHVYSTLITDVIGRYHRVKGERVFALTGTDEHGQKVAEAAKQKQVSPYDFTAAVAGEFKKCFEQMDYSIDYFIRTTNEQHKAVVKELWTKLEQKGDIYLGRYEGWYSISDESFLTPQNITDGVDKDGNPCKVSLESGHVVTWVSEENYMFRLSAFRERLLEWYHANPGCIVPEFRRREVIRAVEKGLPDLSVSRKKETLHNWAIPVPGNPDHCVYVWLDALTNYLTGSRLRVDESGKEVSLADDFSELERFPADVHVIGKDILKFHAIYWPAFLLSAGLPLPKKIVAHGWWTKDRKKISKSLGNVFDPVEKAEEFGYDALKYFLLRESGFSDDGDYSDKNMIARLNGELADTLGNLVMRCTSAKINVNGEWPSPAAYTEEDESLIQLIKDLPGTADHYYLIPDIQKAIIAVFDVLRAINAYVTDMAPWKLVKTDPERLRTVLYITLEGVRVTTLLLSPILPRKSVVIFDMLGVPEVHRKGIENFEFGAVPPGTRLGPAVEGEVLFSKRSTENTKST

For the compound `COC(=O)N(CCCNc1nc2ccc(F)nc2[nH]1)Cc1cc(Cl)cc(Cl)c1` [Compound 1964, methyl 3,5-dichlorobenzyl3-(5-fluoro-3H-imidazo[4,5-b]pyridin-2-ylamino)propylcarbamate], the concentration giving a half-maximal response (EC50) in the test with T. brucei came out at 0.0367 µM. Besides, on MetRS (T. brucei), the concentration for half-maximal inhibition (IC50) amounted to 17 nM.
For `Clc1cc(Cl)cc(CNC2CN(c3nc4nc(Cl)c(Br)cc4[nH]3)C2)c1` [Compound 1865, 1-{6-bromo-5-chloro-1H-imidazo[4,5-b]pyridin-2-yl}-N-[(3,5-dichlorophenyl)methyl]azetidin-3-amine], in that order: 6.63 µM and more than 10000 nM.
The corresponding values for `Clc1ccc(Cn2cc(Cc3nc4ccccc4[nH]3)nn2)c(Cl)c1` [Compound 1752, 2-((1-(2,4-dichlorobenzyl)-1H-1,2,3-triazol-4-yl)methyl)-1H-benzo[d]imidazole] are more than 10 µM and 1360 nM.
The corresponding values for `O=C(Cc1ccc(Cl)cc1Cl)NCc1nc2ncc(Cl)cc2[nH]1` [Compound 1878, N-({6-chloro-1H-imidazo[4,5-b]pyridin-2-yl}methyl)-2-(2,4-dichlorophenyl)acetamide] are 7.52 µM and 195 nM.
Take `Clc1ccc(CN2CCC[C@H](c3nc4nc(Cl)ccc4[nH]3)C2)c(Cl)c1` [Compound 1869, (S)-5-chloro-2-(1-(2,4-dichlorobenzyl)piperidin-3-yl)-1H-imidazo[4,5-b]pyridine]: the EC50 in the test on T. brucei was found to be 1.7 µM. At MetRS (T. brucei), the half-maximal inhibitory concentration (IC50) is 52 nM.
The corresponding values for `N[C@@H](COc1ccc(Cl)cc1Cl)C(=O)NCc1nc2ccccc2[nH]1` [Compound 1807, (S)—N-((1H-benzo[d]imidazol-2-yl)methyl)-3-(2,4-dichlorophenoxy)-2-aminopropanamide] are 3.73 µM and 1550 nM.
Regarding `Fc1ccc2[nH]c(CCCNCc3cc(Cl)cc(Cl)c3)nc2n1` [Compound 1858, N-(3,5-dichlorobenzyl)-3-(5-fluoro-1H-imidazo[4,5-b]pyridin-2-yl)propan-1-amine], the 50% effective concentration (EC50) in the test on T. brucei was found to be 1.89 µM. This compound gave a half-maximal inhibitory concentration (IC50) against MetRS (T. brucei) of 340 nM.
For `CC(=O)N(Cc1ccc(Cl)cc1Cl)C1CCCC(c2nc3nc(F)ccc3[nH]2)C1` (stereo not drawn) [Compound 1836, N-(2,4-dichlorobenzyl)-N-(3-(5-fluoro-1H-imidazo[4,5-b]pyridin-2-yl)cyclohexyl)acetamide], in that order: 7.63 µM and 1430 nM.
Turning to `O=C(CCNCc1cc(Cl)cc(Cl)c1)Nc1nc2ncccc2[nH]1` [Compound 1576, 3-(3,5-dichlorobenzylamino)-N-(3H-imidazo[4,5-b]pyridin-2-yl)propanamide], the EC50 in the test with T. brucei came out at 0.403 µM. The same compound registered an IC50 against MetRS (T. brucei) of 109 nM.
The corresponding values for `CC(=O)N(Cc1cc(Cl)cc(Cl)c1)C1CCCC(c2nc3ccccc3[nH]2)C1` (stereo not drawn) [Compound 1816, N-(3-(1H-benzo[d]imidazol-2-yl)cyclohexyl)-N-(3,5-dichlorobenzyl) acetamide] are 8.79 µM and more than 10000 nM.
For `Clc1cc(Cl)cc(CNCC2CCN2c2nc3nc(Cl)ccc3[nH]2)c1` (stereo not drawn) [Compound 1915, 1-(1-(5-chloro-1H-imidazo[4,5-b]pyridin-2-yl)azetidin-2-yl)-N-(3,5-dichlorobenzyl)methanamine], in that order: 3.1 µM and 170 nM.
The corresponding values for `O=C(NCc1nc2ccccc2[nH]1)N[C@H](CO)Cc1ccc(Cl)cc1Cl` [Compound 1935, 1-((1H-benzo[d]imidazol-2-yl)methyl)-3-((S)-3-(2,4-dichlorophenyl)-1-hydroxypropan-2-yl)urea] are 9.36 µM and more than 10000 nM.
In the case of `Clc1ccc(CN[C@@H]2CCN(c3nc4ccc(Cl)nc4[nH]3)C2)c(Cl)c1` [Compound 1848, (3R)-1-{5-chloro-3H-imidazo[4,5-b]pyridin-2-yl}-N-[(2,4-dichlorophenyl}methyl]pyrrolidin-3-amine], in the test on T. brucei, the EC50 amounted to 10.6 µM. At MetRS (T. brucei), this compound came in with an IC50 of 847 nM.
The corresponding values for `O=C1CN(Cc2cc(Cl)cc(Cl)c2)CCN1Cc1nc2ccccc2[nH]1` [Compound 1748, 1-((1H-benzo[d]imidazol-2-yl)methyl)-4-(3,5-dichlorobenzyl)piperazin-2-one] are more than 10 µM and more than 10000 nM.
The corresponding values for `C=CCOc1c(Cl)cc(Cl)cc1CN[C@H]1CCCN(c2nc3nc(Cl)ccc3[nH]2)C1` [Compound 1928, (S)—N-(2-(allyloxy)-3,5-dichlorobenzyl)-1-(5-chloro-1H-imidazo[4,5-b]pyridin-2-yl)piperidin-3-amine] are 0.326 µM and 21 nM.
For `O=C(CCOc1ccc(Cl)cc1Cl)NC1(c2nc3ccccc3[nH]2)CC1` [Compound 1738, N-(1-(1H-benzo[d]imidazol-2-yl)cyclopropyl)-3-(2,4-dichlorophenoxy)propanamide], in that order: more than 20 µM and more than 10000 nM.
Consider `Clc1ccc(CNC2CCCN(c3nc4nc(Cl)ccc4[nH]3)C2)c(Cl)c1` (stereo not drawn) [Compound 1857, 1-(5-chloro-1H-imidazo[4,5-b]pyridin-2-yl)-N-(2,4-dichlorobenzyl) piperidin-3-amine], for which the EC50 in the test on T. brucei was found to be 1.48 µM. Further, at MetRS (T. brucei), the 50% inhibitory concentration (IC50) is 72 nM.
For `CCC(=O)NC(CC(=O)NCc1cc(Cl)cc(Cl)c1)c1nc2ccc(Cl)nc2[nH]1` (stereo not drawn) [Compound 1968, 3-{5-chloro-3H-imidazo[4,5-b]pyridin-2-yl}-N-[(3,5-dichlorophenyl)methyl]-3-propanamidopropanamide], in that order: more than 20 µM and 1860 nM.
The corresponding values for `O=C(NCc1nc2ccccc2[nH]1)C(=O)NCc1ccc(Cl)cc1Cl` [Compound 1802, N1-((1H-benzo[d]imidazol-2-yl)methyl)-N2-(2,4-dichlorobenzyl)oxalamide] are more than 20 µM and 4290 nM.
Turning to `CC(=O)N(Cc1cc(Cl)cc(Cl)c1)C1CCCC(c2nc3cc(F)ccc3[nH]2)C1` (stereo not drawn) [Compound 1860, N-(3,5-dichlorobenzyl)-N-(3-(5-fluoro-1H-benzo[d]imidazol-2-yl)cyclohexyl)acetamide], in the test on T. brucei, the EC50 was 8.57 µM. On MetRS (T. brucei), half-maximal inhibition (IC50) required 6900 nM.
Regarding `O=C(CCc1nc2nc(Cl)ccc2[nH]1)NCc1cc(Cl)cc(Cl)c1` [Compound 1944, 3-{5-chloro-1H-imidazo[4,5-b]pyridin-2-yl}-N-[(3,5-dichlorophenyl)methyl]propanamide], the concentration giving a half-maximal response (EC50) in the test with T. brucei came out at 11.7 µM. Half-maximal inhibition against MetRS (T. brucei) (IC50) was put at 535 nM.
The corresponding values for `COc1c(Br)cc(Br)cc1CN[C@H]1CCCN(c2nc3nc(Cl)ccc3[nH]2)C1` [Compound 1909, (S)-1-(5-chloro-1H-imidazo[4,5-b]pyridin-2-yl)-N-(3,5-dibromo-2-methoxybenzyl)piperidin-3-amine] are 0.334 µM and 20 nM.
Take `CC(C)Oc1c(Cl)cc(Cl)cc1CN[C@H]1CCCN(c2nc3nc(Cl)ccc3[nH]2)C1` [Compound 1931, (S)-1-(5-chloro-1H-imidazo[4,5-b]pyridin-2-yl)-N-(3,5-dichloro-2-isopropoxybenzyl)piperidin-3-amine]: the EC50 in the test with T. brucei was 1.7 µM. Further, the IC50 at MetRS (T. brucei) came out at 305 nM.
For `O=C1CN(Cc2ccc(Cl)cc2Cl)CCN1Cc1nc2ccccc2[nH]1` [Compound 1747, 1-((1H-benzo[d]imidazol-2-yl)methyl)-4-(2,4-dichlorobenzyl)piperazin-2-one], in that order: more than 10 µM and more than 10000 nM.
Take `CC(=O)N(Cc1cc(Cl)cc(Cl)c1)[C@@H]1CCC[C@H](c2nc3nc(Cl)ccc3[nH]2)C1` [Compound 1859, N-((1R,3S)-3-(5-chloro-1H-imidazo[4,5-b]pyridin-2-yl)cyclohexyl)-N-(3,5-dichlorobenzyl)acetamide]: the EC50 with T. brucei is more than 20 µM. At MetRS (T. brucei), the midpoint of inhibition, the IC50, lay at 1430 nM.
For the compound `CC(=O)N(Cc1ccc(Cl)cc1Cl)C1CCCC(c2nc3nc(Cl)ccc3[nH]2)C1` (stereo not drawn) [Compound 1810, N-(3-(5-chloro-1H-imidazo[4,5-b]pyridin-2-yl)cyclohexyl)-N-(2,4-dichlorobenzyl)acetamide], in the test on T. brucei, the EC50 is 4.53 µM. The compound also yielded a half-maximal inhibitory concentration (IC50) at MetRS (T. brucei) of 361 nM.
Regarding `O=C(CSc1nc2ccc(Cl)nc2[nH]1)NCc1cc(Cl)cc(Cl)c1` [Compound 1951, 2-({5-chloro-3H-imidazo[4,5-b]pyridin-2-yl}sulfanyl)-N-[(3,5-dichlorophenyl)methyl]acetamide], the EC50 in the test on T. brucei is 0.664 µM. Besides, the midpoint of inhibition against MetRS (T. brucei), the IC50, lay at 288 nM.
In the case of `NC(Cc1nc2ccccc2[nH]1)C(=O)NCCc1ccc(Cl)cc1Cl` (stereo not drawn) [Compound 1795, N-(2,4-dichlorophenethyl)-2-amino-3-(1H-benzo[d]imidazol-2-yl)propanamide], the EC50 with T. brucei came out at 12.3 µM. This compound also gave an IC50 against MetRS (T. brucei) of more than 10000 nM.
For `Clc1cc(Cl)cc(CN2CCN(c3nc4nc(Cl)ccc4[nH]3)CC2)c1` [Compound 1866, 5-chloro-2-(4-(3,5-dichlorobenzyl)piperazin-1-yl)-1H-imidazo[4,5-b]pyridine], in that order: more than 20 µM and more than 10000 nM.
`O=C(NCCc1ccc(Cl)cc1Cl)NCc1nc2ccccc2[nH]1` [Compound 1702, 1-((1H-benzo[d]imidazol-2-yl)methyl)-3-(2,4-dichlorophenethyl)urea]: the 50% effective concentration (EC50) in the test with T. brucei was 4.97 µM. The IC50 on MetRS (T. brucei) was 9 nM and 11 nM.
In the case of `CC(=O)N(Cc1cc(Cl)cc(Cl)c1)[C@H]1CCCN(c2nc3nc(F)ccc3[nH]2)C1` [Compound 1901, (S)—N-(3,5-dichlorobenzyl)-N-(1-(5-fluoro-1H-imidazo[4,5-b]pyridin-2-yl)piperidin-3-yl)acetamide], the concentration giving a half-maximal response (EC50) in the test with T. brucei amounted to 5.1 µM. On MetRS (T. brucei), the IC50 turned out to be 692 nM.
The corresponding values for `CC(=O)N(Cc1cc(Cl)cc(Cl)c1)C1CCCC(c2nc3ncccc3[nH]2)C1` (stereo not drawn) [Compound 1818, N-(3-(1H-imidazo[4,5-b]pyridin-2-yl)cyclohexyl)-N-(3,5-dichlorobenzyl) acetamide] are more than 20 µM and 7950 nM.
For `O=C(Cc1cc(Cl)cc(Cl)c1)NCc1nc2ccc(Br)cc2[nH]1` [Compound 1873, N-[(6-bromo-1H-1,3-benzodiazol-2-yl)methyl]-2-(3,5-dichlorophenyl)acetamide], in that order: 5.5 µM and 98 nM.

By EC50 is commonly meant the concentration needed to bring the measured effect to its halfway point. One may read the IC50 as the concentration needed to halve the response being measured.
